{
  "source": "patent US8053585B2",
  "about": "“Protecting group for carboxylic acids that can be photolyzed by visible light” (Cornell Research Foundation, Inc., priority 2006, dated 2011)",
  "target": "T1, α1-subunit human glycine receptor (Homo sapiens, UniProt P23415)",
  "T1 construct": "expressed in transfected cells; host or cells: HEK 293 cells, transiently transfected (Polyfect), co-transfected with GFP plasmid as marker; cDNA from Prof; H. Betz",
  "T1 sequence (P23415 29-457)": "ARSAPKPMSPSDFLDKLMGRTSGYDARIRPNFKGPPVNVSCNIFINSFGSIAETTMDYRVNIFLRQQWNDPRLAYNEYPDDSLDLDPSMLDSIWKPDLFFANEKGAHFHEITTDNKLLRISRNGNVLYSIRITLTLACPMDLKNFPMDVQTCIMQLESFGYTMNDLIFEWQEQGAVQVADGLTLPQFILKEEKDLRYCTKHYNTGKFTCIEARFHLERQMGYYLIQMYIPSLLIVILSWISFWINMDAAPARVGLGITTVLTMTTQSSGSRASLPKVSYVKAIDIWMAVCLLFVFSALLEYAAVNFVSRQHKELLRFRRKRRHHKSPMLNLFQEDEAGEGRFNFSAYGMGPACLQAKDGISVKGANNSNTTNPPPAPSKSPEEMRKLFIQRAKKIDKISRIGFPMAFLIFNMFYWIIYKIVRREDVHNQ",
  "test": "Stability in aqueous solution by whole-cell current recording, cells used as glycine detector",
  "assay_type": "cell-based",
  "conditions": "1 mM solution, 20 hours in the dark, pH 7.4",
  "text": "In whole-cell current recording experiments with DECM-caged glutamate, HEK 293 cells stably transfected with cDNA encoding the GluR6 were used. In whole-cell current recording experiments with DECM-caged glycine, HEK 293 cells were transiently transfected with the cDNA of the α1-subunit of the human glycine receptor by using the Polyfect™ transfection reagent (Qiagen GmbH, D-40724, Hilden, Germany). The cDNA of the α1-subunit was kindly provided by Professor H. Betz (Max-Plank-Institute for brain Research, Frankfurt, Germany). The cells were co-transfected with cDNA encoding the green fluorescent protein (pGreen Lantern plasmid, Life Technologies, Gaitherberg, Md.) to detect transfected cells (Chalfie et al., “Green Fluorescent Protein as a Marker for Gene Expression,” Science 263:802-805 (1994), which is hereby incorporated by reference in its entirety).\nThe cells were used for electrophysiological experiments between 24 and 72 h after each passage. Whole-cell currents evoked by glutamate or glycine (100 μM) were recorded using the whole-cell configuration (Hamill et al., “Improved Patch-Clamp Techniques for High-Resolution Current Recording From Cells and Cell-Free Membrane Patches,” Pfluegers Arch 391:85-100 (1981), which is hereby incorporated by reference in its entirety) at room temperature, −60 mV, and pH 7.4. […]",
  "data": [
    {"smiles": "CCN(CC)c1ccc2c(COC(=O)CN)cc(=O)oc2c1", "note": "[DECM-caged glycine, (7-N,N-Diethylaminocoumarin-4-yl)-methyl-glycine-trifluoroacetate]", "values": [
      {"measurement": "free glycine in solution of caged compound", "result": "no free glycine was detected"}
    ]}
  ]
}
